Assay results: patent publication US10870618B2, “Histone deacetylase inhibitors and uses thereof” (MUSC FOUNDATION FOR RESEARCH DEVELOPMENT, priority 2016, dated 2020)
Values joined by “and” are separate entries in the source; they are usually repeats but may differ in a detail not shown here. Equal entries are not always repeated. “Also recorded” adds a separate entry of the source.

Columns and labels:
class I HDACs = assay: Class I HDAC inhibition (FIG. 7a); assay type: biochemical
Description: All Treatments are at 100 nM inhibitor concentration.

[1] = tested on: melanoma and renal cancer; assay: Cell line efficacy, melanoma and renal cancer growth; assay type: cell-based; conditions: melanoma and renal cancer cell lines
Description: Percent growth below zero indicates the treatment has selective lethality to the cancer cells.

[2] = Stability in artificial gastric and intestinal juice and human serum; assay type: in vitro ADME; conditions: over 8 hours
[3] = tested on: Raw246.7 macrophage cells; assay: NO production in activated macrophages; assay type: cell-based; conditions: 100 nM, LPS and LPS+ATP
Description: Hypo-acetylation of histone H3 and H4 were also reversed with HDAC inhibitor treatments (yellow dash box). d.

MV4-11 cells [4] = assay: Pulse treatment of MV4-11 cells, cell death; assay type: cell-based; conditions: 2 hr treatment (200 nM), removal of inhibitor, 24 hr incubation
[5] = ESI-LCMS glucuronidation assay; assay type: in vitro ADME, human; conditions: 2,2,2-trifluoroacetate
Description: Mixed gender pooled Human Liver Microsomes (HLMs) were purchased from Xenotech, Lot#H0160. A buffer solution containing 100 mM Tris HCl buffered to a pH of 7.5 at 37° C. was used to dilute HLMs to a concentration of 250 μg/mL. To this solution was added 1 μg/mL (final) of alamethicin and 5 mM MgCl2 (final). This solution was rocked gently at 4° C. for 15 minutes to allow pore formation. 180 μL of this solution was added to 10 μL of 5 mM inhibitor+10 μL of 50 mM UDPGA in H2O or just 10 μL H2O. This solution was gently rocked at 37° C. for 12 hours before being quenched with a 47:50:3 (v/v/v) solution of water, acetonitrile and formic acid. After a 15 minute centrifugation at 15000G in 37° C. conditions, 20 μL of supernatant was directly injected into Thermo LTQ Fleet LCMS.
An Accucore RP-MS HPLC Column, 2.6 […], 30×4.6 mm was used throughout these assays. Water and methanol with 0.1% (v/v) formic acid were used as mobile phase. A gradient of 10% methanol 90% water was run isocratically for 2 minutes at […]. The gradient then changed to 100% methanol over 10 minutes before returning to 10% methanol 90% water over the next three minutes. Capillary temperature was 350° C., with a spray voltage of 5 kV.

AML cell lines = assay: AML / leukemia cell toxicity; assay type: cell-based
Description: MV4-11 cells were purchased from ATCC. The cells were grown according to ATCC protocol in Iscove's Modified Deulbecco's Medium with 10% Fetal Bovine Serum. Cells were grown in 37° C. environments with 5% CO2. Cells were plated at 20 k cells/well in 96-well clear U-bottom plates and pre-incubated for 24 hours. Addition of serially diluted inhibitor (in medium) was performed followed by 48 hours of additional incubation. Addition of CellTiter-Blue occurred to a final concentration of 0.125 mg/mL. The mixture was allowed to incubate until sufficient color changed occurred. Cell viability was measured as a function of resorfuin intensity using a Tecan M200 Pro spectrophotometer, 560 nm (ex.)/590 nm (em.). […] EC50's were determined using GraphPad Prism's built in “log(inhibitor) vs. normalized response—Variable slope” function.
Hek293 cells were purchased from ATCC. Cells were grown as described above. Cells were plated at 20 k cells/well in 96-well clear U-bottom plates and pre-incubated for 24 hours. […] Cell viability was measured as a function of resorufin intensity using a Tecan M200 Pro spectrophotometer, 560 nm (ex.)/590 nm (em.).
Human PBMCs were graciously donated from Dr. Nathan Dolloff s laboratory. […] Cell viability was measured as a function of resorufin intensity using a Tecan M200 Pro spectrophotometer, 560 nm (ex.)/590 nm (em.).

MV4-11 cells [6] = assay: Western blot analysis of MV4-11 cells; assay type: cell-based
Description: MV4-11 cells were cultured as described above. Cells were plated at 500 k cells/mL×3 mLs in clear, flat bottom 6 well plates. Cells were pre-incubated for 24 hours before addition of inhibitor at various concentrations. […] Cell pellets were lysed with RIPA buffer. RIPA buffer is comprised of 50 mM Tris Base, 150 mM NaCl, 5 mM EDTA, 0.1% (v/v) SDS, 0.5% (v/v) Sodium Deoxycholate, and 1% (v/v) Triton-x-100. After lysing, the suspension is ultra-sonicated and centrifuged at 15000 RPM for 15 minute at 4° C. 80 μL of supernatant was mixed with 40 μL of 15:85 (v/v) 3-mercaptoethanol:LDS solution. The mixture was heated at 90° C. for 15 minutes and stored for loading at −20° C. Prior to loading, the solution was flash thawed at 90° C. Lysates were run on Invitrogen NuPAGE 4-12% Bis-Tris 15 well gels at 170V for approximately 60 minutes in MES buffer. Gels were transferred to […] and ran at 30V for 180 minutes. Primary antibodies, purchased from Santa Cruz Biotechnology, were added in 5% (w/v) milk or 5% (w/v) Bovine Serum Albumin fraction V. The antibody was incubated with cellulose overnight at 4° C. before addition of secondary antibody in 5% (w/v) milk or 5% (w/v) Bovine Serum Albumin. Images were read using a GE ImageQuant LAS 4000. Global lighting adjustments of resulting images were made using Adobe Photoshop CC. Quantification was performed using Image Studio Lite 4.0.

[7] = In vivo PK, plasma concentration via LC-MS/MS; set-up: species or system mice
Description: The PK parameters were analyzed. The area under the plasma concentration versus time curve (AUC) is calculated using the linear trapezoidal method. The PK data were fitted to obtain PK parameters using the non-compartmental method.
LP-411 in vivo PK. a. Semi-log PK profiles for […] at 20 mg/kg (n=3) determined through a 24 hr period. b.

SMILES: CCCNNC(=O)/C=C/c1ccc(CNCCc2c(C)[nH]c3ccccc23)cc1 [LP-97, (E)-2-(2-methyl-1H-indol-3-yl)-N-(4-(3-oxo-3-(2-propylhydrazinyl)prop-1-en-1-yl)benzyl)ethan-1-aminium 2,2,2-trifluoroacetate]
- HDAC inhibitor potency, class I HDACs (class I HDACs): low-nanoM to picoM
- growth inhibition concentration [1]: below 100 nM
- total growth inhibition concentration [1]: 1 µM
- degradation in artificial gastric and intestinal juice and human serum [2]: no appreciable degradation
- NO production, acute treatment [3]: only inhibited LPS induced NO production but not ATP driven ones
- cell death after pulse treatment (MV4-11 cells [4]): significant AML cell death
- glucuronidation by human liver microsomes [5]: resistance to glucuronidation; also recorded: resistant to glucuronidation
- toxicity against wt-p53 versus p53-null and mutants (AML cell lines; n=3): selective toxicity
- effective concentration against multiple AML cell lines (AML cell lines; wild-type p53 leukemia cell lines): < 100 nM
- p53 level after pulse treatment (MV4-11 cells [6]; 2 hr treatment (200 nM), removal of inhibitor, 24 hr incubation): significant reduction
- effect on oncogenic proteins FLT3 and STAT5 (MV4-11 cells [6]; AML FLT3-ITD mutant cell line MV4-11): degradation
- Cmax relative to panobinostat ([7]; 20 mg/Kg I.P.): about 5 times
- t1/2 ([7]; in vivo, 20 mg/kg, plasma): 6.07 h
- half-life ([7]; mouse, intraperitoneal, in vivo, 20 mg/kg, plasma): 6.07 h
- Cmax ([7]; mouse, plasma, ip, 20 mg/kg I.P.): 559 ng/mL and 1.5 µM
